Laboratory results reported in the kinase profiling compilation of Christmann-Franck et al. (2016).

Assays:
Test in all cases: radiometric filter-binding kinase assay
AURKA (human) = AURKA (human) (UniProt O14965); conditions: compound 100.0 µM; ATP 5 µM
AURKB (human) = AURKB (human) (UniProt Q96GD4); conditions: compound 100.0 µM; ATP 20 µM
BRSK2 (human) = BRSK2 (human) (UniProt Q8IWQ3); conditions: compound 100.0 µM; ATP 50 µM
BTK (human) = BTK (human) (UniProt Q06187); conditions: compound 100.0 µM; ATP 50 µM
CAMKK2 (human) = CAMKK2 (human) (UniProt Q96RR4); conditions: compound 100.0 µM; ATP 20 µM
CHEK1 (human) = CHEK1 (human) (UniProt O14757); conditions: compound 100.0 µM; ATP 20 µM
CaMK1 (human) = CaMK1 (human) (UniProt Q14012); conditions: compound 100.0 µM; ATP 50 µM
DAPK1 (human) = DAPK1 (human) (UniProt P53355); conditions: compound 100.0 µM; ATP 5 µM
DYRK1A (human) = DYRK1A (human) (UniProt Q13627); conditions: compound 100.0 µM; ATP 50 µM
DYRK3 (human) = DYRK3 (human) (UniProt O43781); conditions: compound 100.0 µM; ATP 5 µM
EPHB1 (human) = EPHB1 (human) (UniProt P54762); conditions: compound 100.0 µM; ATP 20 µM
ERBB4 (human) = ERBB4 (human) (UniProt Q15303); conditions: compound 100.0 µM; ATP 5 µM
GSK3B (human) = GSK3B (human) (UniProt P49841); conditions: compound 100.0 µM; ATP 5 µM
GSK3B (human), sequence (P49841 whole entry, looked up): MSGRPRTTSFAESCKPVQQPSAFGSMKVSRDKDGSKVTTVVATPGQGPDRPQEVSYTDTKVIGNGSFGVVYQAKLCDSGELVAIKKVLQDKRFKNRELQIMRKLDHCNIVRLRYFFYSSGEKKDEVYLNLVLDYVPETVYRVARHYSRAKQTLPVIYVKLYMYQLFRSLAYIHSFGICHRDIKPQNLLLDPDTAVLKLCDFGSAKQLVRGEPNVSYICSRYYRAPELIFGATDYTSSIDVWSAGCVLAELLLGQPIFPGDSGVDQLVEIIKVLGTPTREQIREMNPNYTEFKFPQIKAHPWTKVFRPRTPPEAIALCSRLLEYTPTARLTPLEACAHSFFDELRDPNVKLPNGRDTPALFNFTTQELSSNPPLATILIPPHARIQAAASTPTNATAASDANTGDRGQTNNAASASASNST

HIPK1 (human) = HIPK1 (human) (UniProt Q86Z02); conditions: compound 100.0 µM; ATP 20 µM
HIPK3 (human) = HIPK3 (human) (UniProt Q9H422); conditions: compound 100.0 µM; ATP 20 µM
IKBKE (human) = IKBKE (human) (UniProt Q14164); conditions: compound 100.0 µM; ATP 50 µM
MAP2K1 (human) = MAP2K1 (human) (UniProt Q02750); conditions: compound 100.0 µM; ATP 5 µM
MAP2K6 (human) = MAP2K6 (human) (UniProt P52564); conditions: compound 100.0 µM; ATP 50 µM
MAP2K6 (human), sequence (P52564 whole entry, looked up): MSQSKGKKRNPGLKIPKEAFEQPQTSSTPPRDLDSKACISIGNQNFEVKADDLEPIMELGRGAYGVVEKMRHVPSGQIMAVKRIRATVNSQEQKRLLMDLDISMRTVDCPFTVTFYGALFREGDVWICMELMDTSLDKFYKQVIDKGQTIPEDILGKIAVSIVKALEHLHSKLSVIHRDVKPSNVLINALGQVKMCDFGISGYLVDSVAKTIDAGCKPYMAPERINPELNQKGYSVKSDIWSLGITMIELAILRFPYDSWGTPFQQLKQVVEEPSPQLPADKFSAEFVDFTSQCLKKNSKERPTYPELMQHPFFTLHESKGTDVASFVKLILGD

MAP3K9 (human) = MAP3K9 (human) (UniProt P80192); conditions: compound 100.0 µM; ATP 20 µM
MAPK10 (human) = MAPK10 (human) (UniProt P53779); conditions: compound 100.0 µM; ATP 20 µM
MAPK15 (human) = MAPK15 (human) (UniProt Q8TD08); conditions: compound 100.0 µM; ATP 5 µM
MAPK15 (human), sequence (Q8TD08 whole entry, looked up): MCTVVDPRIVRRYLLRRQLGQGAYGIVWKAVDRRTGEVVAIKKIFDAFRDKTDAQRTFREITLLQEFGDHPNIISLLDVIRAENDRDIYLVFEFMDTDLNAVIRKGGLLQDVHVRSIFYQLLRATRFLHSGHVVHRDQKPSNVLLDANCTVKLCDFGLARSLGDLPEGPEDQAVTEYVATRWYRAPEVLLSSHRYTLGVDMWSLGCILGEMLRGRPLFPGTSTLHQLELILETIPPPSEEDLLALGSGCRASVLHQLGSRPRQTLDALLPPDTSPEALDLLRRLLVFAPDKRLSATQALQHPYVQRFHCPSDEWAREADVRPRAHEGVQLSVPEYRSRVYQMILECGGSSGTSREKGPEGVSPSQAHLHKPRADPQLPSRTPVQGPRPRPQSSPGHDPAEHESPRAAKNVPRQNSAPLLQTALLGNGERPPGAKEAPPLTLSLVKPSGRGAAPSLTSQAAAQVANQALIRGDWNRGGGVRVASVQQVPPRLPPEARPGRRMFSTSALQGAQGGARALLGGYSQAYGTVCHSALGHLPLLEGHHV

MAPKAPK2 (human) = MAPKAPK2 (human) (UniProt P49137); conditions: compound 100.0 µM; ATP 20 µM
MARK2 (human) = MARK2 (human) (UniProt Q7KZI7); conditions: compound 100.0 µM; ATP 20 µM
MARK2 (human), sequence (Q7KZI7 whole entry, looked up): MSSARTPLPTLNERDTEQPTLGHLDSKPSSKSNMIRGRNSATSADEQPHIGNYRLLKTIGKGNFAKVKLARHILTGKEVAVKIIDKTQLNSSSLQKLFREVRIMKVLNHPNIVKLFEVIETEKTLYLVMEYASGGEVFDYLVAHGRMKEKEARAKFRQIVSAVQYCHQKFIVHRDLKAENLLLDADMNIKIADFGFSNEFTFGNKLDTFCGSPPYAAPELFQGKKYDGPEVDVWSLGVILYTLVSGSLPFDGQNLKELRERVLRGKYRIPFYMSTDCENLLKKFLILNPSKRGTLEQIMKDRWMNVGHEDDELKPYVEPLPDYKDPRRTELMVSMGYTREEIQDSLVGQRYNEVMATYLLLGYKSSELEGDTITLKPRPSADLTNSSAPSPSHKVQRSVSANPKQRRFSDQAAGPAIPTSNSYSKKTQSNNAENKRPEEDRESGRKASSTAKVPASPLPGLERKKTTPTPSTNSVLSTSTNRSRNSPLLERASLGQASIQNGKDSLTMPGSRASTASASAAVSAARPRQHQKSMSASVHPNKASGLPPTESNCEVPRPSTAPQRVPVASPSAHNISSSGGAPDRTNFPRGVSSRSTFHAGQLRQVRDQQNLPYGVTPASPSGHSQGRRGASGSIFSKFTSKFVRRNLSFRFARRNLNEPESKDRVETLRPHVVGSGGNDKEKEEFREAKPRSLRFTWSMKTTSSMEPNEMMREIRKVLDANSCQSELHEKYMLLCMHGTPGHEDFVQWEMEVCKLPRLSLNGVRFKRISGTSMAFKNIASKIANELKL

MYLK (human) = MYLK (human) (UniProt Q15746); conditions: compound 100.0 µM; ATP 50 µM
NEK6 (human) = NEK6 (human) (UniProt Q9HC98); conditions: compound 100.0 µM; ATP 50 µM
NTRK1 (human) = NTRK1 (human) (UniProt P04629); conditions: compound 100.0 µM; ATP 20 µM
NUAK1 (human) = NUAK1 (human) (UniProt O60285); conditions: compound 100.0 µM; ATP 20 µM
PAK7 (human) = PAK7 (human) (UniProt Q9P286); conditions: compound 100.0 µM; ATP 20 µM
PHKG1 (human) = PHKG1 (human) (UniProt Q16816); conditions: compound 100.0 µM; ATP 50 µM
PIM3 (human) = PIM3 (human) (UniProt Q86V86); conditions: compound 100.0 µM; ATP 20 µM
[1] = target: PRKAA1 PRKAB2 PRKAG1 (human) (UniProt O43741+Q13131+P54619); conditions: compound 100.0 µM; ATP 20 µM
PRKCA (human) = PRKCA (human) (UniProt P17252); conditions: compound 100.0 µM; ATP 20 µM
PRKCG (human) = PRKCG (human) (UniProt P05129); conditions: compound 100.0 µM; ATP 20 µM
RIPK2 (human) = RIPK2 (human) (UniProt O43353); conditions: compound 100.0 µM; ATP 20 µM
RIPK2 (human), sequence (O43353 whole entry, looked up): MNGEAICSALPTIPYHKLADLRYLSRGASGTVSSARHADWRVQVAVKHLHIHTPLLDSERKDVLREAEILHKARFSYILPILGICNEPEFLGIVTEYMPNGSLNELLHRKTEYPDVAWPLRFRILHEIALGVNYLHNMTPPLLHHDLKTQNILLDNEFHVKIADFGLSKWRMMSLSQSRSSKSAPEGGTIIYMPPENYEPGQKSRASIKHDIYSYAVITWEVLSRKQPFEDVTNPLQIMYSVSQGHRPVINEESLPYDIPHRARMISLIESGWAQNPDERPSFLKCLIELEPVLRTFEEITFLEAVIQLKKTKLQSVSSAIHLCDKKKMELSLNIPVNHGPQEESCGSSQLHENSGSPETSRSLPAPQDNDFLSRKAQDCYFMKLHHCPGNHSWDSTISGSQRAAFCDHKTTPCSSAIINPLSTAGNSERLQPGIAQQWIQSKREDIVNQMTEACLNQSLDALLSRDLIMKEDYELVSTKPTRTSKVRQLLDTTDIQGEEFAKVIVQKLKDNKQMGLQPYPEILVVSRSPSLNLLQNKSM

[2] = tested on: RPS6KB1 (human), P23443 [T412E]; conditions: compound 100.0 µM; ATP 20 µM
RPS6KB1 (human), P23443 [T412E], sequence (P23443 whole entry T412E, looked up): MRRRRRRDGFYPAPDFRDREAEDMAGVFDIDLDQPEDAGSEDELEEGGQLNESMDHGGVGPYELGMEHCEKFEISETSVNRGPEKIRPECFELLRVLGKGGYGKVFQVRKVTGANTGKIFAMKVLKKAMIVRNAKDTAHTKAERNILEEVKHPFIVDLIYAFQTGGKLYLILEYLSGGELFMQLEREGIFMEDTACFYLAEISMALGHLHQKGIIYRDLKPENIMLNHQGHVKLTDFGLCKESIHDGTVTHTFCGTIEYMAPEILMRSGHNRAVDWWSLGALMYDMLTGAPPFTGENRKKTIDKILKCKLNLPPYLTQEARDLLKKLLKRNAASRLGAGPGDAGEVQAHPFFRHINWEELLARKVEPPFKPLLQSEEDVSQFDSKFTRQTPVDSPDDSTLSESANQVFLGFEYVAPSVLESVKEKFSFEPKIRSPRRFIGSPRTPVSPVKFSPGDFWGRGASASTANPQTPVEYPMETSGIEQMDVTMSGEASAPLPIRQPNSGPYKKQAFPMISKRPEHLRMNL

SRC (human) = SRC (human) (UniProt P12931); conditions: compound 100.0 µM; ATP 50 µM
STK33 (human) = STK33 (human) (UniProt Q9BYT3); conditions: compound 100.0 µM; ATP 50 µM
SYK (human) = SYK (human) (UniProt P43405); conditions: compound 100.0 µM; ATP 20 µM
TBK1 (human) = TBK1 (human) (UniProt Q9UHD2); conditions: compound 100.0 µM; ATP 50 µM
TEK (human) = TEK (human) (UniProt Q02763); conditions: compound 100.0 µM; ATP 20 µM

BRSK2 (human), sequence (Q8IWQ3 whole entry, looked up): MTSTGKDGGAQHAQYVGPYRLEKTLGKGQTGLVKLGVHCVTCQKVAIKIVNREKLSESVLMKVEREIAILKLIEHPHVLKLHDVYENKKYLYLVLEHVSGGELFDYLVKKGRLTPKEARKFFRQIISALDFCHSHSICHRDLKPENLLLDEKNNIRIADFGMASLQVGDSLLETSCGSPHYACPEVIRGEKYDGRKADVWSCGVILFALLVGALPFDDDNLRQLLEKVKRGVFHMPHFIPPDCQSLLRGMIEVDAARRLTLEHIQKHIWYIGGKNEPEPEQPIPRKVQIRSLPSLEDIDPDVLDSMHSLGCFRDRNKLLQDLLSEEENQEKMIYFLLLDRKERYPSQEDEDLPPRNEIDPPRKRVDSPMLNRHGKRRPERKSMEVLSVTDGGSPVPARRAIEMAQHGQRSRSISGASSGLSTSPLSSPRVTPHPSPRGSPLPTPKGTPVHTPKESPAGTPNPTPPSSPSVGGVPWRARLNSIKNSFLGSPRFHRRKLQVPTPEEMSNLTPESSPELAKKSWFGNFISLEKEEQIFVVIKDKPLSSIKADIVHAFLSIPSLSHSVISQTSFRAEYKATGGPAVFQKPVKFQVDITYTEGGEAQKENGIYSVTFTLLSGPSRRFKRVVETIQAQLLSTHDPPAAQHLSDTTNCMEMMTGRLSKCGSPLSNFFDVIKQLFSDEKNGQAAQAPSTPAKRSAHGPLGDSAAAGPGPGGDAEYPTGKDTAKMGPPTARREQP
AURKB (human), sequence (Q96GD4 whole entry, looked up): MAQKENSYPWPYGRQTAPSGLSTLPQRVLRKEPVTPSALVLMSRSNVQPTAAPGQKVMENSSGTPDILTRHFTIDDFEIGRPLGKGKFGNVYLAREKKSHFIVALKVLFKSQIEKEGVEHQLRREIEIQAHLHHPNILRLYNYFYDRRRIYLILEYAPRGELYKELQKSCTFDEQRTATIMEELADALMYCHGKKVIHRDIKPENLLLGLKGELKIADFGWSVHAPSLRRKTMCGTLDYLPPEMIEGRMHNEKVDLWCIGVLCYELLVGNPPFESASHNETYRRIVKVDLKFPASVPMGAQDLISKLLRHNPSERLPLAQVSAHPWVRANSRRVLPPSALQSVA

| inhibition (AURKA (human)) | inhibition (AURKB (human)) | inhibition (BRSK2 (human)) | inhibition (BTK (human)) | inhibition (CAMKK2 (human)) | inhibition (CHEK1 (human)) | inhibition (CaMK1 (human)) | inhibition (DAPK1 (human)) | inhibition (DYRK1A (human)) | inhibition (DYRK3 (human)) | inhibition (EPHB1 (human)) | inhibition (ERBB4 (human)) | inhibition (GSK3B (human)) | inhibition (HIPK1 (human)) | inhibition (HIPK3 (human)) | inhibition (IKBKE (human)) | inhibition (MAP2K1 (human)) | inhibition (MAP2K6 (human)) | inhibition (MAP3K9 (human)) | inhibition (MAPK10 (human)) | Compound | further results |
| --- | --- | --- | --- | --- | --- | --- | --- | --- | --- | --- | --- | --- | --- | --- | --- | --- | --- | --- | --- | --- | --- |
| 13% | 61% | 20% | 28% | 41% | 18% | 17% | 12% | 43% | 69% | 22% | 19% | 73% | 16% | 0% | 23% | 34% | 0% | 43% | 11% | CC(=O)Nc1nc2cnc(-c3ccccc3)cn2n1 | inhibition (MAPK15 (human)): 88%; inhibition (MAPKAPK2 (human)): 7%; inhibition (MARK2 (human)): 18%; inhibition (MYLK (human)): 0%; inhibition (NEK6 (human)): 21%; inhibition (NTRK1 (human)): 28%; inhibition (NUAK1 (human)): 33%; inhibition (PAK7 (human)): 20%; inhibition (PHKG1 (human)): 68%; inhibition (PIM3 (human)): 30%; inhibition [1]: 14%; inhibition (PRKCA (human)): 0%; inhibition (PRKCG (human)): 2%; inhibition (RIPK2 (human)): 29%; inhibition [2]: 5%; inhibition (SRC (human)): 18%; inhibition (STK33 (human)): 5%; inhibition (SYK (human)): 31%; inhibition (TBK1 (human)): 31%; inhibition (TEK (human)): 11% |
| 10% | 0% | 11% | 0% | 18% | 0% | 35% | 0% | 0% | 12% | 0% | 9% | 8% | 0% | 0% | 0% | 0% | 0% | 0% | 0% | CC(=O)Nc1nc2cnc(-c3c(C)cccc3C)cn2n1 | inhibition (MAPK15 (human)): 7%; inhibition (MAPKAPK2 (human)): 0%; inhibition (MARK2 (human)): 0%; inhibition (MYLK (human)): 0%; inhibition (NEK6 (human)): 0%; inhibition (NTRK1 (human)): 0%; inhibition (NUAK1 (human)): 0%; inhibition (PAK7 (human)): 5%; inhibition (PHKG1 (human)): 0%; inhibition (PIM3 (human)): 1%; inhibition [1]: 0%; inhibition (PRKCA (human)): 0%; inhibition (PRKCG (human)): 12%; inhibition (RIPK2 (human)): 5%; inhibition [2]: 0%; inhibition (SRC (human)): 0%; inhibition (STK33 (human)): 0%; inhibition (SYK (human)): 10%; inhibition (TBK1 (human)): 15%; inhibition (TEK (human)): 0% |
| 0% | 0% | 22% | 17% | 0% | 0% | 6% | 0% | 0% | 1% | 1% | 21% | 0% | 0% | 0% | 0% | 20% | 3% | 0% | 0% | O=C(Nc1cnc2[nH]cnn2c1=O)c1ccccc1 | inhibition (MAPK15 (human)): 4%; inhibition (MAPKAPK2 (human)): 17%; inhibition (MARK2 (human)): 0%; inhibition (MYLK (human)): 0%; inhibition (NEK6 (human)): 0%; inhibition (NTRK1 (human)): 0%; inhibition (NUAK1 (human)): 0%; inhibition (PAK7 (human)): 0%; inhibition (PHKG1 (human)): 28%; inhibition (PIM3 (human)): 0%; inhibition [1]: 0%; inhibition (PRKCA (human)): 0%; inhibition (PRKCG (human)): 2%; inhibition (RIPK2 (human)): 0%; inhibition [2]: 0%; inhibition (SRC (human)): 0%; inhibition (STK33 (human)): 0%; inhibition (SYK (human)): 0%; inhibition (TBK1 (human)): 24%; inhibition (TEK (human)): 0% |
| 17% | 0% | 24% | 49% | 0% | 4% | 9% | 5% | 31% | 30% | 20% | 48% | 44% | 30% | 0% | 22% | 43% | 0% | 0% | 0% | O=c1cc(-c2ccccc2F)nc2[nH]ccn12 | inhibition (MAPK15 (human)): 18%; inhibition (MAPKAPK2 (human)): 22%; inhibition (MARK2 (human)): 0%; inhibition (MYLK (human)): 13%; inhibition (NEK6 (human)): 7%; inhibition (NTRK1 (human)): 50%; inhibition (NUAK1 (human)): 6%; inhibition (PAK7 (human)): 0%; inhibition (PHKG1 (human)): 8%; inhibition (PIM3 (human)): 83%; inhibition [1]: 0%; inhibition (PRKCA (human)): 2%; inhibition (PRKCG (human)): 7%; inhibition (RIPK2 (human)): 57%; inhibition [2]: 8%; inhibition (SRC (human)): 11%; inhibition (STK33 (human)): 12%; inhibition (SYK (human)): 20%; inhibition (TBK1 (human)): 6%; inhibition (TEK (human)): 0% |
| 5% | 12% | 22% | 51% | 28% | 0% | 83% | 14% | 30% | 17% | 0% | 53% | 38% | 0% | 1% | 0% | 0% | 1% | 14% | 0% | CC(C)(C)Nc1c(COCc2ccccc2)nc2[nH]cnn12 | inhibition (MAPK15 (human)): 1%; inhibition (MAPKAPK2 (human)): 2%; inhibition (MARK2 (human)): 13%; inhibition (MYLK (human)): 24%; inhibition (NEK6 (human)): 0%; inhibition (NTRK1 (human)): 6%; inhibition (NUAK1 (human)): 20%; inhibition (PAK7 (human)): 0%; inhibition (PHKG1 (human)): 10%; inhibition (PIM3 (human)): 18%; inhibition [1]: 18%; inhibition (PRKCA (human)): 0%; inhibition (PRKCG (human)): 8%; inhibition (RIPK2 (human)): 13%; inhibition [2]: 0%; inhibition (SRC (human)): 12%; inhibition (STK33 (human)): 0%; inhibition (SYK (human)): 12%; inhibition (TBK1 (human)): 9%; inhibition (TEK (human)): 0% |
